How the values were obtained:
[1] = tested on: skin
[2] = tested on: Human skin (full thickness)
Experimental: Transdermal insulin delivery was assessed by the Franz cell apparatus (PermeGear, PA, USA). Human skin (full thickness) was obtained from Zen-bio (NC, US). A mechanical skin press apparatus was used to section the skin and it was kept at −20° C. until it was used. On the day of experiment, the skin samples were pre-equilibrated with the PBS for 1 h prior to use, with the dermal side submerged in the buffer. Then, the skin samples were clamped between the donor and receptor chambers, with the epidermal side facing the donor compartment. […] The sunflower oil containing insulin without biopolymer was used as a control treatment. The receptor chamber was filled with 5 ml of PBS containing sodium azide (to prevent microbial growth) and kept at 32±0.5° C. under constant stirring (500 rpm). Samples (200 μL each) were taken at the indicated time points and an equal volume of the buffer was added immediately. The amount of insulin permeation was quantified by ELISA, using a designated standard curve [Mercodia]. All of the samples were tested in three repetitions.

Compound | trans-epidermal water loss (TEWL), Baseline ([1]; before application, 5 hr exposure experiment) | increase of water loss (TEWL) ([1]; positive control, same experimental settings) | insulin permeation across human skin ex vivo [2]
CCCCCCCCCCCCOS(=O)(=O)[O-].[Na+] [SDS, sodium dodecyl sulfate] | 10.0 ± 2.4 g/m^2/hr | ~3 fold | –
Sodium carboxymethyl cellulose [CMC] | – | – | did not enhance insulin permeation
